{
  "source": "patent US20250082611A1",
  "about": "“DOSING REGIMEN FOR AN NLRP3 INHIBITOR IN THE TREATMENT OF OSTEOARTHRITIS” (Novartis AG, priority 2021, published 2025)",
  "key": {"[1]": {"assay": "First-in-human study: safety and tolerability in healthy subjects", "format": "in vivo", "description": "The study design comprised of 4 parts: single ascending dose (SAD; Part A), relative bioavailability of tablet formulations (Part B), multiple ascending dose (MAD; Part C), and relative bioavailability and food effect (Part D) (FIG. 2; RF=Reference Formulation (crystalline suspension); T2=Test Formulation 2 (crystalline tablet); T3=Test Formulation 3 (spray-dried dispersion suspension); T4=Test Formulation 4 (encapsulated crystalline tablet)). In each group of Parts A and C, 8 subjects were randomized in a 3:1 ratio to receive Compound IA (6 subjects) or matching placebo (2 subjects).\nFor Part A, eight cohorts of eight eligible subjects were enrolled. Each subject received a single oral dose of Compound IA (3, 10, 30, 100, 300 mg of crystalline suspension and 100, 300, 600 mg of spray-dried dispersion (SDD) under fasted conditions. As this was a FIH study, two sentinel subjects were dosed first, at least 24 hours before the rest of the cohort was dosed, to assure maximum safety. Part B was skipped because the data from Part A provided for an adequate comparison of crystalline and SDD formulations.\nFor part C, eligible subjects were enrolled in six different cohorts. […] Subjects were dosed in Part C following review available safety, tolerability and PK data from preceding groups in Part A.\nSafety assessments in all parts of the study included adverse event (AE) reporting using the Medical Dictionary for Regulatory Activities (version 22.1), clinical laboratory tests (biochemistry, hematology, and urinalysis), vital signs, electrocardiograms (ECGs), physical examination and skin biopsy (as applicable)."}, "[2]": {"test_system": "ex-vivo stimulated IL-1β release in whole blood", "assay": "First-in-human study: ex-vivo LPS stimulation of whole blood, IL-1β release (PD)", "format": "cell-based", "protocol": "To determine the PD response to NLRP3 inhibition, whole blood samples were collected for exploratory PD analysis (Part A and Groups 1-3 of Part C). An ex-vivo stimulation by activating the NLRP3 inflammasome with lipopolysaccharide (LPS) was evaluated compared to control conditions, followed by analysis of blood cell release of the inflammatory marker IL-1β.\nCombined individual and mean plots of the individual IL-1β concentrations versus time are presented by treatment. Modeling of Compound IA effects on a corrected, stimulated ex vivo Lipopolysaccharide (LPS) challenge in whole blood included evaluation of the relationship between LPS challenge results by conditionally weighted residual modeling."}, "[3]": {"conditions": "in vivo", "protocol": "The safety of the treatment period is supported by 13-week GLP toxicology studies in rat and cynomolgus monkey. […] Safety margins for COMPOUND IA dosed at 25 mg b.i.d. based on 13-week GLP toxicology studies: […]"}, "[4]": {"test_system": "CYP3A", "assay": "In vitro metabolism studies, CYP3A induction and substrate", "format": "in vitro ADME", "description": "Therefore, investigators, at their discretion, may administer concomitant medications known to be metabolized by CYP3A4/5. Patients receiving such medications may require dose titration or increase of the concomitant drug. […] Investigators may, at their discretion, co-administer known inhibitors of CYP3A, but their duration should be kept as short as possible, and patients must be closely monitored."}, "[5]": {"conditions": "fractional Emax model with Hill coefficient"}},
  "note": "Where two headings read alike, the source gives them in different places.",
  "data": [
    {"smiles": "CC(C)(O)c1ncc([S@](N)(=O)=NC(=O)Nc2c3c(cc4c2CCC4)CCC3)s1", "note": "[Compound IA, (R)-N′-((1,2,3,5,6,7-hexahydro-s-indacen-4-yl)carbamoyl)-2-(2-hydroxypropan-2-yl) thiazole-5-sulfonimidamide]", "values": [
      {"measurement": "subjects with TEAEs considered related to study drug", "setting": "[1]; 21/94 who received Compound IA", "result": 22, "unit": "%"},
      {"measurement": "subjects reporting treatment emergent adverse events (TEAEs)", "setting": "[1]; Compound IA arm, 66/94 subjects", "result": 70, "unit": "%"},
      {"measurement": "skin rash", "setting": "[1]; dosed once daily with 30, 100, and 200 mg", "result": "skin rashes have been observed in some participants"},
      {"measurement": "dose relation of maculopapular and/or pruritic skin rashes", "setting": "[1]; human, in vivo", "result": "most frequently reported at the higher multiple dose levels"},
      {"measurement": "intensity of skin rash/pruritus TEAEs", "setting": "[1]; human, in vivo", "result": "mild to moderate"},
      {"measurement": "subjects with mild, non-clinically significant decrease in neutrophil and leukocyte counts", "setting": "[1]; human, in vivo", "result": 27, "unit": "subjects"},
      {"measurement": "vital signs, 12-lead ECG, 24-hour Holter monitoring, physical examination", "setting": "[1]; human, in vivo", "result": "No other clinically relevant findings"},
      {"measurement": "subjects with skin rash and/or pruritus", "setting": "[1]; multiple dose 30 mg QD", "result": 2, "unit": "n"},
      {"measurement": "subjects with skin rash and/or pruritus", "setting": "[1]; multiple dose 50 mg BID", "result": 3, "unit": "n"},
      {"measurement": "subjects with skin rash and/or pruritus", "setting": "[1]; multiple dose 100 mg QD", "result": 3, "unit": "n"},
      {"measurement": "subjects with skin rash and/or pruritus", "setting": "[1]; multiple dose 200 mg QD", "result": 2, "unit": "n"},
      {"measurement": "neutrophil and leukocyte counts", "setting": "[1]; non-clinically significant, occasionally noted", "result": "Mild decreases"},
      {"measurement": "subjects with TEAEs of maculopapular skin rash and/or pruritus (adverse events of special interest)", "setting": "[1]; of 122 enrolled, all received Compound IA", "result": 12, "unit": "subjects"},
      {"measurement": "tolerability", "setting": "[1]; single and multiple oral doses, healthy subjects", "result": "generally well tolerated"},
      {"measurement": "subjects with skin rash and/or pruritus", "setting": "[1]; single dose 100 mg", "result": 1, "unit": "n"},
      {"measurement": "subjects with skin rash and/or pruritus", "setting": "[1]; single dose 600 mg", "result": 1, "unit": "n"},
      {"measurement": "deaths or serious adverse events", "setting": "[1]; whole study", "result": "No deaths or serious adverse events (SAEs) were reported"},
      {"measurement": "IC90", "setting": "[2]; Homo sapiens, LPS challenge, median, 90% CI 2.84, 3.54, read-out: IC90, inhibiting 90% of ex-vivo stimulated IL-1β release", "result": 3.18, "unit": "µM"},
      {"measurement": "IC50", "setting": "[2]; Homo sapiens, relative to 100% inhibition, 90% CI 0.118, 0.179", "result": 0.146, "unit": "µM"},
      {"measurement": "EC50", "setting": "[2]; Homo sapiens, relative to estimated maximum effect, 90% CI 0.114, 0.171", "result": 0.141, "unit": "µM"},
      {"measurement": "EC90", "setting": "[2]; Homo sapiens, relative to estimated maximum effect, 90% CI 2.24, 2.94", "result": 2.57, "unit": "µM"},
      {"measurement": "Emax of IL-1β, arithmetic mean (±SD)", "setting": "[2]; [5]", "result": "−0.985 (±0.00277)"},
      {"measurement": "observed stimulation effect of IL-1β, arithmetic mean (±SD)", "setting": "[2]; [5]", "result": "1820 (±102) ng/L"},
      {"measurement": "time after dosing from which inhibition of IL-1β was observed", "setting": "[2]; most dose levels", "result": 1, "unit": "h"},
      {"measurement": "concentrations of IL-1β with increasing doses", "setting": "[2]; single and multiple oral doses", "result": "dose-dependent decreases"},
      {"measurement": "Exposure multiples RAT NOAEL based on AUC0-24 h", "setting": "[3]", "result": 14},
      {"measurement": "Exposure multiples RAT NOAEL based on Cmax", "setting": "[3]", "result": 34},
      {"measurement": "Exposure multiples RAT NOAEL based on AUC0-24 h", "setting": "[3]; 25 mg", "result": 7},
      {"measurement": "Exposure multiples RAT NOAEL based on Cmax", "setting": "[3]; 25 mg", "result": 17},
      {"measurement": "CYP3A substrate status", "setting": "[4]", "result": "substrate of CYP3A"},
      {"measurement": "induction of metabolism of CYP3A substrates", "setting": "[4]", "result": "might have the potential to induce"}
    ]}
  ]
}
